Reference: patent US10604512B2, “3-(1H-indol-2-yl)-1H-indazoles and therapeutic uses thereof” (Samumed, LLC, priority 2015, dated 2020)

How the values were obtained:
IL-6 = assay: Inhibition of IL-6 in LPS-stimulated THP-1 human monocyte cells (HTRF); assay type: cell-based; conditions: for EC50: IL-6 inhibition, LPS-stimulated THP-1 cells, HTRF; for inhibition at 10 µM: THP-1, printed beside >10 μM EC50, top concentration 10 μM, meaning not given, read-out: percentage in parentheses after EC50 >10
Method in brief: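 THP-1 cells serum-reduced (1% FBS, 24 h), then 5000 cells/well preincubated 2 h with compound (10-point 1:3 series from 10 μM, 0.1% DMSO) before 500 ng/mL LPS for 22 h at 37 °C. Secreted IL-6 quantified by HTRF 665/620 ratio; DMSO-normalised duplicates fitted to four-parameter EC50; above 10 μM, % inhibition at 10 μM given.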

[1] = test system: Wnt activity (Sp5-Luc reporter, TCF/LEF binding sites) in SW480 colon carcinoma cells; assay: Screening assay for Wnt activity: Sp5-Luc reporter gene assay in stably transduced SW480 colon carcinoma cells; assay type: cell-based; conditions: Homo sapiens; for EC50: overnight incubation, 10-point curve from 10 μM; for inhibition at 10 µM: given where EC50 >10 μM, read-out: percent inhibition at 10 μM
Method in brief: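 SW480 cells stably transduced with a luciferase reporter driven by an Sp5 promoter of eight TCF/LEF sites were plated at 4,000 cells/well in 1% FBS medium. They were exposed overnight at 37° C to a 10-point 1:3 dilution series from 10 μM (0.1% DMSO). Luminescence was normalized to DMSO for four-parameter EC50, or percent inhibition at 10 μM.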

| Structure (SMILES) | EC50 (IL-6) | EC50 [1] | inhibition at 10 µM (IL-6) | inhibition at 10 µM [1] |
| --- | --- | --- | --- | --- |
| CS(=O)(=O)NCc1cc(F)cc(-c2cccc3[nH]c(-c4n[nH]c5ccc(-c6ccncc6)cc45)cc23)c1 [Compound 494, N-(3-Fluoro-5-(2-(5-(pyridin-4-yl)-1H-indazol-3-yl)-1H-indol-4-yl)benzyl) methane sulfonamide] | 2330 nM | 3900 nM |  |  |
| CS(=O)(=O)NCc1cc(F)cc(-c2cccc3[nH]c(-c4n[nH]c5ccc(-c6cncnc6)cc45)cc23)c1 [Compound 503, N-(3-Fluoro-5-(2-(5-(pyrimidin-5-yl)-1H-indazol-3-yl)-1H-indol-4-yl)benzyl) methanesulfonamide] | 910 nM | 205 nM |  |  |
| CC(C)CC(=O)Nc1cncc(-c2ccc3[nH]nc(-c4cc5ncccc5[nH]4)c3c2)c1 [Compound 506, N-(5-(3-(1H-Pyrrolo[3,2-b]pyridin-2-yl)-1H-indazol-5-yl)pyridin-3-yl)-3-methylbutanamide] | 102 nM | 86 nM |  |  |
| O=C(Nc1cncc(-c2ccc3[nH]nc(-c4cc5ncccc5[nH]4)c3c2)c1)c1ccccc1 [Compound 515, N-(5-(3-(1H-Pyrrolo[3,2-b]pyridin-2-yl)-1H-indazol-5-yl)pyridin-3-yl) benzamide] | 270 nM | 908 nM |  |  |
| c1cnc2cc(-c3n[nH]c4ccc(-c5cncc(CN6CCCCC6)c5)cc34)[nH]c2c1 [Compound 519, 5-(5-(Piperidin-1-ylmethyl)pyridin-3-yl)-3-(1H-pyrrolo[3,2-b]pyridin-2-yl)-1H-indazole] | 97 nM | 165 nM |  |  |
| O=C(Nc1cncc(-c2ccc3[nH]nc(-c4cc5ncccc5[nH]4)c3c2)c1)C1CCC1 [Compound 525, N-(5-(3-(1H-Pyrrolo[3,2-b]pyridin-2-yl)-1H-indazol-5-yl)pyridin-3-yl) cyclobutanecarboxamide] | 24 nM | 109 nM |  |  |
| Fc1cccc(-c2cccc3[nH]c(-c4n[nH]c5ccc(C6CCNCC6)cc45)cc23)c1 [Compound 533, 3-(4-(3-Fluorophenyl)-1H-indol-2-yl)-5-(piperidin-4-yl)-1H-indazole] | 2800 nM | 3830 nM |  |  |
| Fc1ccc(-c2cccc3[nH]c(-c4n[nH]c5ccc(C6=CCNCC6)cc45)cc23)cc1 [Compound 550, 3-(4-(4-Fluorophenyl)-1H-indol-2-yl)-5-(1,2,3,6-tetrahydropyridin-4-yl)-1H-indazole] | > 10000 nM | > 10000 nM | 33.7% | 48% |
| Cc1ncc(-c2ccc3[nH]nc(-c4cc5c(-c6ccncc6)cccc5[nH]4)c3c2)n1C [Compound 601, 5-(1,2-Dimethyl-1H-imidazol-5-yl)-3-(4-(pyridin-4-yl)-1H-indol-2-yl)-1H-indazole] | 4170 nM | > 10000 nM |  | 32.4% |
| c1cc(N2CCCCC2)c2cc(-c3n[nH]c4ccc(-c5cncc(OC6CCCCC6)c5)cc34)[nH]c2c1 [Compound 635, 5-(5-(Cyclohexyloxy)pyridin-3-yl)-3-(4-(piperidin-1-yl)-1H-indol-2-yl)-1H-indazole] | > 10000 nM | 2930 nM | 22.6% |  |
| CN1CCN(c2cccc3[nH]c(-c4n[nH]c5ccc(-c6cncc(NC(=O)CC7CCNCC7)c6)cc45)cc23)CC1 [Compound 669, N-(5-(3-(4-(4-Methylpiperazin-1-yl)-1H-indol-2-yl)-1H-indazol-5-yl)pyridin-3-yl)-2-(piperidin-4-yl)acetamide] | > 10000 nM | > 10000 nM | 25.3% | 11.7% |
| c1ccc2[nH]c(-c3n[nH]c4ccc(-c5cncc(OCCN6CCCC6)c5)cc34)cc2c1 [Compound 686, 3-(1H-Indol-2-yl)-5-(5-(2-(pyrrolidin-1-yl)ethoxy)pyridin-3-yl)-1H-indazole] | 208 nM | 1090 nM |  |  |
| c1cc(-c2ccoc2)c2cc(-c3n[nH]c4ccc(-c5cncc(OC6CCNCC6)c5)cc34)[nH]c2c1 [Compound 716, 3-(4-(Furan-3-yl)-1H-indol-2-yl)-5-(5-(piperidin-4-yloxy)pyridin-3-yl)-1H-indazole] | > 10000 nM | 628 nM | 25.5% |  |
